Test results as given in PMC10766984, “Josephin domain containing 2 (JOSD2) promotes lung cancer by inhibiting LKB1 (Liver kinase B1) activity” (Signal Transduction and Targeted Therapy, 2024).
Counter-ions that a name gives are not always drawn.

What follows are molecules tested against T1, GST-JOSD2 (Homo sapiens, UniProt Q8TAC2) (assay: not given). Conditions: 2 μM compound incubated with GST-JOSD2 at 37 °C for 30 min.
T1 sequence (Q8TAC2 1-188): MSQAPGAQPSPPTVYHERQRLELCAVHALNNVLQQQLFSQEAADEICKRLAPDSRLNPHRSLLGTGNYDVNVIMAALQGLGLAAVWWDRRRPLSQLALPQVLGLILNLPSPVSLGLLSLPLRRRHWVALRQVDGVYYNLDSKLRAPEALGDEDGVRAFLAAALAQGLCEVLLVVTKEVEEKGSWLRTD

Compared with O=C1C=CC(=O)c2c1nnn2Cc1cc(F)cc(Cl)c1 [HY032801], N#CSc1cc(SC#N)c(N)nc1N [PR-619, reference compound] is higher in “JOSD2 activity inhibition ratio” value: −0.98% for the first, 42.70% for the second.

Same assay, conditions: compound concentration 2 μM; JOSD2 inhibitor screening, related to Fig. 7a

First: O=C(CCc1ccccc1)N1CCC(O)(Cn2cnc3cc(Cl)ccc3c2=O)CC1 [USP7-IN-1]
Second: Tyloxapol
The “JOSD2 Activity Inhibition (%)” value of the first is lower: -29.77% for the first, 29.65% for the second.

Going from O=C1c2ccccc2C(=O)c2oc(-c3cccnc3)nc21 [SJB3-019A] to CC1(C)[C@@H](O[C@H]2O[C@H](C(=O)O)[C@@H](O)[C@H](O)[C@H]2O[C@@H]2O[C@H](C(=O)O)[C@@H](O)[C@H](O)[C@H]2O)CC[C@]2(C)[C@H]3C(=O)C=C4[C@@H]5C[C@@](C)(C(=O)O)CC[C@]5(C)CC[C@@]4(C)[C@]3(C)CC[C@@H]12.N.N [Diammonium Glycyrrhizinate], the “JOSD2 Activity Inhibition (%)” value falls from 42.78% to -22.76%.

Going from O=C1/C(=C/c2ccc([N+](=O)[O-])cc2)CS(=O)(=O)C/C1=C\c1ccc([N+](=O)[O-])cc1 [Ubiquitin Isopeptidase Inhibitor I] to CCc1c(-c2ccc3[nH]ncc3c2)cnc(N)c1-c1ccc(O)cc1 [GNE-6640], the “JOSD2 Activity Inhibition (%)” value rises from 1.00% to 12.54%.

First: CCCC(NC(=O)/C(C#N)=C/c1nc(Cl)ccc1Cl)c1ccc(OCCN2CCOCC2)cc1 (stereo not drawn) [EOAI3402143]
Second: N#CSc1cc(SC#N)c(N)nc1N [PR-619, reference compound]
The “JOSD2 Activity Inhibition (%)” value of the first is lower: 29.05% for the first, 42.70% for the second.

First: C[C@]12C=CC(=O)C=C1CC[C@@H]1[C@@H]2[C@@H](O)C[C@@]2(C)[C@H]1CC[C@]2(O)C(=O)COP(=O)([O-])[O-].[Na+].[Na+] [Prednisolone phosphate sodium]
Second: CC(=O)O/N=C1\C(=O)N(Cc2cc(Cl)ccc2Cl)c2ccc(Cl)cc21 [LDN-57444]
The “JOSD2 Activity Inhibition (%)” value of the first is higher: 36.74% for the first, -16.75% for the second.

First: HBX 19818
Second: C[C@H]1C[C@@H]2[C@H]([C@@H](O)C[C@@]3(C)[C@H]2CC[C@]3(O)C(=O)COC(=O)CCC(=O)[O-])[C@@]2(C)C=CC(=O)C=C12.[Na+] [Methylprodnisolone Sodium Succinate]
The “JOSD2 Activity Inhibition (%)” value of the first is higher: -0.37% for the first, -78.62% for the second.

Compared with O=C1c2ccccc2C(=O)c2oc(-c3ccccc3)nc21 [SJB2-043], CN1C2=CC(=O)/C(=N\NC(N)=O)C=C2CC1S(=O)(=O)[O-].[Na+] (stereo not drawn) [AC-17 (Carbazochrome sodium sulfonate)] is lower in “JOSD2 Activity Inhibition (%)” value: 13.43% for the first, 9.85% for the second.

First: O=C(c1ccc(F)cc1)C1CCN(CCn2c(=O)[nH]c3ccccc3c2=O)CC1 [Ketaneserin]
Second: C=CCO/N=C1\c2ccccc2-c2nc(C#N)c(C#N)nc21 [DUBs-IN-3]
The “JOSD2 Activity Inhibition (%)” value of the first is lower: -29.69% for the first, 14.15% for the second.

Compared with Cl.N=C(N)NN [Aminoguanidine hydrochloride], C=CC(N)CCC(=O)O.Cl (stereo not drawn) [Vigabatrin Hydrochloride] is higher in “JOSD2 Activity Inhibition (%)” value: -35.00% for the first, -16.37% for the second.

CCO/N=C1\c2ccccc2-c2nc(C#N)c(C#N)nc21 [DUBs-IN-2] was tested, and the “JOSD2 Activity Inhibition (%)” value was 5.01%.

Same assay, conditions: read-out: JOSD2 Activity Inhibition (%)

Going from CCOC(=O)C1=C(COCCN)NC(C)=C(C(=O)OC)C1c1ccccc1Cl (stereo not drawn) [Amlodipine Besylate] to COC(=O)[C@H](c1ccccc1Cl)N1CCc2sccc2C1 [Clopidogrel sulfate], the inhibition at 2 µM rises from -24.3% to -15%.

Compared with CC(=O)OCC(=O)[C@@]12OC3(CCCC3)O[C@@H]1C[C@H]1[C@@H]3CCC4=CC(=O)C=C[C@]4(C)[C@@]3(F)[C@@H](O)C[C@@]12C [Amcinonide], CCCCC(=O)O[C@]1(C(=O)CO)[C@@H](C)C[C@H]2[C@@H]3CCC4=CC(=O)C=C[C@]4(C)[C@@]3(F)[C@@H](O)C[C@@]21C [Betamethasone 17-valerate] is lower in inhibition at 2 µM: -19.2% for the first, -26% for the second.

Compared with CCCSc1nc(N[C@@H]2C[C@H]2c2ccc(F)c(F)c2)c2nnn([C@@H]3C[C@H](OCCO)[C@@H](O)[C@H]3O)c2n1 [Ticagrelor], CCc1ccc(CCOc2ccc(CC3SC(=O)NC3=O)cc2)nc1 (stereo not drawn) [Pioglitazone hydrochloride] is lower in inhibition at 2 µM: 23.1% for the first, -5% for the second.

Compared with CCOC(=O)[N-]c1cn(N2CCOCC2)n[o+]1 [Molsidomine], CC(=O)OCC(=O)NCCCOc1cccc(CN2CCCCC2)c1 [Roxatidine Acetate hydrochloride] is lower in inhibition at 2 µM: 35.8% for the first, -20.8% for the second.

Going from COc1ccc(Cc2nccc3cc(OC)c(OC)cc23)cc1OC [Papaverine hydrochloride] to COc1cc(CNC(=O)CCCC/C=C/C(C)C)ccc1O [Capsaicin], the inhibition at 2 µM rises from -27.9% to 1.77%.

First: O=C1C=CC(=O)c2c1nnn2Cc1cc(F)cc(Cl)c1 [HY032801]
Second: CC(C(=O)O)c1ccc2c(c1)Cc1cccnc1O2 (stereo not drawn) [Pranoprofen]
The inhibition at 2 µM of the first is higher: -0.98% for the first, -2.73% for the second.

Going from C[C@]12CCC(=O)C=C1C=C[C@@H]1[C@@H]2CC[C@@]2(C)[C@H]1CC[C@@]21CCC(=O)O1 [Canrenone] to CC(=O)[C@H]1CC[C@H]2[C@@H]3C[C@H](C)C4=CC(=O)CC[C@]4(C)[C@H]3[C@@H](O)C[C@]12C [Medrysone], the inhibition at 2 µM rises from -22.3% to -8.83%.

Compared with COc1ccc(O)cc1 [Leucobasal], O=S(=O)(O)c1cc(O)ccc1O [Etamsylate] is lower in inhibition at 2 µM: -15.3% for the first, -21.4% for the second.

Going from CN1C[C@H](C(=O)N[C@]2(C)O[C@@]3(O)[C@@H]4CCCN4C(=O)[C@H](Cc4ccccc4)N3C2=O)C=C2c3cccc4[nH]cc(c34)C[C@H]21 [Ergotamine bitartrate] to CC(CCc1ccccc1)NC(C)C(O)c1ccc(O)cc1 (stereo not drawn) [Nylidrin hydrochloride], the inhibition at 2 µM falls from -5.18% to -31.9%.

First: C#CCN[C@@H]1CCc2ccccc21 [Rasagiline]
Second: C#CCN(C)Cc1ccccc1 [Pargyline]
The inhibition at 2 µM of the first is lower: 29% for the first, 29.8% for the second.

Going from CCN(CC)CCNC(=O)c1ccc(N)cc1 [Procainamide hydrochloride] to CC(C)(Sc1ccc(CCN(CCCCC2CCCCC2)C(=O)NC2CCCCC2)cc1)C(=O)O [GW7647], the inhibition at 2 µM falls from -20.4% to -29.7%.

First: CC(C)(C(=O)c1cccnc1)c1cccnc1 [Metyrapone]
Second: O=P(O)(O)C(O)(Cc1cccnc1)P(=O)(O)O [Risedronate Sodium]
The inhibition at 2 µM of the first is lower: -6.94% for the first, 4.34% for the second.

The molecules below were run on LKB1-WT NSCLC cell lines (assay: Proliferation assay, panel of LKB1-WT cell lines). Conditions: indicated concentrations, 72 h.
Format: cell-based
Protocol: The indicated cell lines were treated with indicated compounds at a series of concentrations for 72 h, followed by cell proliferation assay and colony formation assay. Black dashed line indicates 50% of cell survival.
For cell proliferation assay, cells infected with lentiviruses packaged indicated plasmids were seeded indicated number cells per well in 96-well plates. Cell number (absorbance) was then estimated by the sulforhodamine B (SRB) (Sigma-Aldrich, #230162) assay and the absorbance of the individual wells was determined at the optical density of 515 nm. For colony formation assay, cells infected with lentiviruses packaged indicated plasmids were seeded indicated number cells per well in 6-well plates. Two weeks later, cells were stained with SRB and the numbers of colonies having more than 50 cells were counted.

For O=C1C=CC(=O)c2c1nnn2Cc1cc(F)cc(Cl)c1 [HY032801], the “Cell viability / cell proliferation” value was “failed to inhibit cell proliferation”.

Each molecule was assayed on PDX LUAD 083120 (Case 2) (assay: Patient-derived xenograft study, intratumor JOSD2 shRNA). Conditions: not given.
Format: in vivo, BALB/c-Nude mice
Protocol: (§1) PDXs were established in our lab using female BALB/c-Nude mice (4-5 weeks) implanted with tumor tissues from patients undergoing surgeries. […] Once tumors reached approximately 50 mm^3 in volume, mice were randomly assigned to scramble control or JOSD2 shRNA intra-tumor injection treatment. For the intratumor injection, a mice received an intratumorally injection of 5 ×10^6 lentiviruses in 20 μL sterile saline solution every two days.

“shJOSD2#1: gene-specific shRNA targeting JOSD2, GCAACTATGATGTCAATGTGA, delivered by lentiviral vector (lentiviral shRNA)” was tested, and the Inhibition ratio was 52.24%.

“shJOSD2#1: gene-specific shRNA targeting JOSD2, GCAACTATGATGTCAATGTGA, delivered by lentiviral vector (lentiviral shRNA)” gave a T/C of 64.34%.

Same assay, conditions: at the endpoint

“shJOSD2#1: gene-specific shRNA targeting JOSD2, GCAACTATGATGTCAATGTGA, delivered by lentiviral vector (lentiviral shRNA)” was tested, and the “Tumor Weight” value was 0.08 ± 0.02 g.

Same assay, conditions: intratumor injection

“shJOSD2#1: gene-specific shRNA targeting JOSD2, GCAACTATGATGTCAATGTGA, delivered by lentiviral vector (lentiviral shRNA)” gave an RTV of 2.73 ± 0.63.

These molecules were tested on PDX LUAD 110519 (Case 1) in the same assay as above. Conditions: not given.
Format: in vivo, BALB/c-Nude mice
Protocol: as §1

For “shJOSD2#1: gene-specific shRNA targeting JOSD2, GCAACTATGATGTCAATGTGA, delivered by lentiviral vector (lentiviral shRNA)”, the Inhibition ratio was 64.73%.

With “shJOSD2#1: gene-specific shRNA targeting JOSD2, GCAACTATGATGTCAATGTGA, delivered by lentiviral vector (lentiviral shRNA)” the T/C was 37.84%.

Same assay, conditions: at the endpoint

“shJOSD2#1: gene-specific shRNA targeting JOSD2, GCAACTATGATGTCAATGTGA, delivered by lentiviral vector (lentiviral shRNA)” was tested, and the “Tumor Weight” value was 0.14 ± 0.07 g.

Same assay, conditions: intratumor injection

“shJOSD2#1: gene-specific shRNA targeting JOSD2, GCAACTATGATGTCAATGTGA, delivered by lentiviral vector (lentiviral shRNA)” gave an RTV of 3.20 ± 1.37.
